Several values for one entry are separate records, joined by “and”; a condition that tells them apart may be missing. Identical values can stand only once. Toxic doses and inconclusive results are not listed. Rule for the calls: active = survival T/C of 150% or more; inactive = T/C below 125% in these data.
System: CD2F1 mice, L1210 leukemia ip, survival T/C
Assay: NCI In Vivo Anticancer Drug Screen. Data for tumor model L1210 Leukemia (intraperitoneal) in CD2F1 (CDF1) mice
Conditions: higher = longer survival
In short: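 Activity against a transplanted murine tumor was judged by comparing the compound group with a vehicle group. The outcome in the treated animals was divided by that in the controls.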

Measured: T/C

O=C(O)CCCc1ccc(N(CCCl)CCCl)cc1
inactive: endpoint: mean survival time, dose: 0.5 mg/kg/injection, schedule: Q01DX009 (ip), vehicle: Klucel (hydroxypropylcellulose) (HPC) 103 % of control and 108 % of control | endpoint: mean survival time, dose: 1.0 mg/kg/injection, schedule: Q01DX009 (ip), vehicle: Klucel (hydroxypropylcellulose) (HPC) 94 % of control and 100 % of control and 106 % of control | endpoint: mean survival time, dose: 1.0 mg/kg/injection, schedule: Q03HX024 (ip), vehicle: other 102 % of control | endpoint: mean survival time, dose: 1.56 mg/kg/injection, schedule: Q01DX009 (ip), vehicle: saline 101 % of control and 103 % of control | endpoint: mean survival time, dose: 2.0 mg/kg/injection, schedule: Q01DX009 (ip), vehicle: Klucel (hydroxypropylcellulose) (HPC) 97 % of control and 100 % of control and 103 % of control | endpoint: mean survival time, dose: 2.0 mg/kg/injection, schedule: Q01DX009 (ip), vehicle: saline with Tween-80 106 % of control | endpoint: mean survival time, dose: 2.0 mg/kg/injection, schedule: Q01DX009 (oral), vehicle: other 102 % of control | endpoint: mean survival time, dose: 2.0 mg/kg/injection, schedule: Q03HX008 (ip), vehicle: other 101 % of control | endpoint: mean survival time, dose: 2.0 mg/kg/injection, schedule: Q03HX016 (ip), vehicle: other 103 % of control | endpoint: mean survival time, dose: 2.0 mg/kg/injection, schedule: Q03HX024 (ip), vehicle: other 105 % of control | endpoint: mean survival time, dose: 3.13 mg/kg/injection, schedule: Q01DX009 (ip), vehicle: saline 119 % of control and 110 % of control | endpoint: mean survival time, dose: 3.75 mg/kg/injection, schedule: Q01DX009 (ip), vehicle: Klucel (hydroxypropylcellulose) (HPC) 102 % of control | endpoint: mean survival time, dose: 4.0 mg/kg/injection, schedule: Q01DX001 (ip), vehicle: saline with Tween-80 91 % of control | endpoint: mean survival time, dose: 4.0 mg/kg/injection, schedule: Q01DX001 (oral), vehicle: other 95 % of control | endpoint: mean survival time, dose: 4.0 mg/kg/injection, schedule: Q01DX009 (ip), vehicle: Klucel (hydroxypropylcellulose) (HPC) 116 % of control and 101 % of control and 111 % of control | endpoint: mean survival time, dose: 4.0 mg/kg/injection, schedule: Q01DX009 (ip), vehicle: other 114 % of control | endpoint: mean survival time, dose: 4.0 mg/kg/injection, schedule: Q01DX009 (ip), vehicle: saline with Tween-80 117 % of control and 103 % of control | endpoint: mean survival time, dose: 4.0 mg/kg/injection, schedule: Q01DX009 (oral), vehicle: other 96 % of control | endpoint: mean survival time, dose: 4.0 mg/kg/injection, schedule: Q01DX009 (sc), vehicle: other 102 % of control | endpoint: mean survival time, dose: 4.0 mg/kg/injection, schedule: Q03HX008 (ip), vehicle: other 102 % of control | endpoint: mean survival time, dose: 4.0 mg/kg/injection, schedule: Q03HX016 (ip), vehicle: other 110 % of control | endpoint: mean survival time, dose: 4.0 mg/kg/injection, schedule: Q03HX024 (ip), vehicle: other 111 % of control | endpoint: mean survival time, dose: 4.0 mg/kg/injection, schedule: Q04DX003 (ip), vehicle: saline with Tween-80 102 % of control | endpoint: mean survival time, dose: 4.0 mg/kg/injection, schedule: Q04DX003 (oral), vehicle: other 107 % of control | endpoint: mean survival time, dose: 6.25 mg/kg/injection, schedule: Q01DX009 (ip), vehicle: saline 106 % of control and 110 % of control | endpoint: mean survival time, dose: 7.5 mg/kg/injection, schedule: Q01DX007 (ip), vehicle: saline 108 % of control | endpoint: mean survival time, dose: 7.5 mg/kg/injection, schedule: Q01DX009 (ip), vehicle: saline 114 % of control | endpoint: mean survival time, dose: 7.5 mg/kg/injection, schedule: Q03DX003 (ip), vehicle: saline 104 % of control | endpoint: mean survival time, dose: 7.5 mg/kg/injection, schedule: Q04DX003 (ip), vehicle: saline 102 % of control | endpoint: mean survival time, dose: 8.0 mg/kg/injection, schedule: Q01DX001 (ip), vehicle: saline with Tween-80 96 % of control | endpoint: mean survival time, dose: 8.0 mg/kg/injection, schedule: Q01DX001 (oral), vehicle: other 96 % of control | endpoint: mean survival time, dose: 8.0 mg/kg/injection, schedule: Q01DX009 (ip), vehicle: Klucel (hydroxypropylcellulose) (HPC) 113 % of control and 117 % of control and 105 % of control | endpoint: mean survival time, dose: 8.0 mg/kg/injection, schedule: Q01DX009 (ip), vehicle: other 120 % of control | endpoint: mean survival time, dose: 8.0 mg/kg/injection, schedule: Q01DX009 (ip), vehicle: saline with Tween-80 117 % of control and 101 % of control | endpoint: mean survival time, dose: 8.0 mg/kg/injection, schedule: Q01DX009 (oral), vehicle: other 106 % of control | endpoint: mean survival time, dose: 8.0 mg/kg/injection, schedule: Q01DX009 (sc), vehicle: other 111 % of control | endpoint: mean survival time, dose: 8.0 mg/kg/injection, schedule: Q03HX008 (ip), vehicle: other 119 % of control | endpoint: mean survival time, dose: 8.0 mg/kg/injection, schedule: Q03HX016 (ip), vehicle: other 118 % of control | endpoint: mean survival time, dose: 8.0 mg/kg/injection, schedule: Q04DX003 (ip), vehicle: other 118 % of control | endpoint: mean survival time, dose: 8.0 mg/kg/injection, schedule: Q04DX003 (ip), vehicle: saline with Tween-80 109 % of control | endpoint: mean survival time, dose: 8.0 mg/kg/injection, schedule: Q04DX003 (oral), vehicle: other 96 % of control | endpoint: mean survival time, dose: 10.0 mg/kg/injection, schedule: Q01DX009 (ip), vehicle: saline with Tween-80 118 % of control | endpoint: mean survival time, dose: 12.5 mg/kg/injection, schedule: Q01DX009 (ip), vehicle: saline 119 % of control | endpoint: mean survival time, dose: 15.0 mg/kg/injection, schedule: Q01DX007 (ip), vehicle: saline 122 % of control | endpoint: mean survival time, dose: 15.0 mg/kg/injection, schedule: Q01DX009 (ip), vehicle: Klucel (hydroxypropylcellulose) (HPC) 108 % of control | endpoint: mean survival time, dose: 15.0 mg/kg/injection, schedule: Q01DX009 (ip), vehicle: saline with Tween-80 120 % of control | endpoint: mean survival time, dose: 15.0 mg/kg/injection, schedule: Q01DX009 (ip), vehicle: saline 120 % of control | endpoint: mean survival time, dose: 15.0 mg/kg/injection, schedule: Q03DX003 (ip), vehicle: saline 117 % of control | endpoint: mean survival time, dose: 15.0 mg/kg/injection, schedule: Q04DX003 (ip), vehicle: saline 111 % of control | endpoint: mean survival time, dose: 16.0 mg/kg/injection, schedule: Q01DX001 (ip), vehicle: other 102 % of control | endpoint: mean survival time, dose: 16.0 mg/kg/injection, schedule: Q01DX001 (ip), vehicle: saline with Tween-80 107 % of control | endpoint: mean survival time, dose: 16.0 mg/kg/injection, schedule: Q01DX001 (oral), vehicle: other 93 % of control | endpoint: mean survival time, dose: 16.0 mg/kg/injection, schedule: Q01DX001 (sc), vehicle: other 104 % of control | endpoint: mean survival time, dose: 16.0 mg/kg/injection, schedule: Q01DX009 (ip), vehicle: Klucel (hydroxypropylcellulose) (HPC) 114 % of control and 97 % of control | endpoint: mean survival time, dose: 16.0 mg/kg/injection, schedule: Q01DX009 (ip), vehicle: saline with Tween-80 118 % of control and 97 % of control | endpoint: mean survival time, dose: 16.0 mg/kg/injection, schedule: Q01DX009 (oral), vehicle: other 120 % of control | endpoint: mean survival time, dose: 16.0 mg/kg/injection, schedule: Q01DX009 (sc), vehicle: other 120 % of control | endpoint: mean survival time, dose: 16.0 mg/kg/injection, schedule: Q04DX003 (ip), vehicle: other 115 % of control | endpoint: mean survival time, dose: 16.0 mg/kg/injection, schedule: Q04DX003 (ip), vehicle: saline with Tween-80 120 % of control | endpoint: mean survival time, dose: 16.0 mg/kg/injection, schedule: Q04DX003 (oral), vehicle: other 103 % of control | endpoint: mean survival time, dose: 16.0 mg/kg/injection, schedule: Q08DX002 (ip), vehicle: other 101 % of control | endpoint: mean survival time, dose: 30.0 mg/kg/injection, schedule: Q01DX007 (ip), vehicle: saline with Tween-80 90 % of control | endpoint: mean survival time, dose: 30.0 mg/kg/injection, schedule: Q01DX009 (ip), vehicle: Klucel (hydroxypropylcellulose) (HPC) 110 % of control | endpoint: mean survival time, dose: 30.0 mg/kg/injection, schedule: Q01DX009 (ip), vehicle: saline 124 % of control | endpoint: mean survival time, dose: 30.0 mg/kg/injection, schedule: Q04DX003 (ip), vehicle: saline 114 % of control | endpoint: mean survival time, dose: 32.0 mg/kg/injection, schedule: Q01DX001 (ip), vehicle: other 108 % of control | endpoint: mean survival time, dose: 32.0 mg/kg/injection, schedule: Q01DX001 (ip), vehicle: saline with Tween-80 117 % of control and 109 % of control | endpoint: mean survival time, dose: 32.0 mg/kg/injection, schedule: Q01DX001 (oral), vehicle: other 96 % of control | endpoint: mean survival time, dose: 32.0 mg/kg/injection, schedule: Q01DX001 (sc), vehicle: other 108 % of control | endpoint: mean survival time, dose: 32.0 mg/kg/injection, schedule: Q01DX009 (oral), vehicle: other 102 % of control | endpoint: mean survival time, dose: 32.0 mg/kg/injection, schedule: Q04DX003 (ip), vehicle: other 120 % of control | endpoint: mean survival time, dose: 32.0 mg/kg/injection, schedule: Q04DX003 (oral), vehicle: other 103 % of control | endpoint: mean survival time, dose: 32.0 mg/kg/injection, schedule: Q08DX002 (ip), vehicle: other 108 % of control | endpoint: mean survival time, dose: 64.0 mg/kg/injection, schedule: Q01DX001 (ip), vehicle: other 118 % of control | endpoint: mean survival time, dose: 64.0 mg/kg/injection, schedule: Q01DX001 (oral), vehicle: other 102 % of control | endpoint: mean survival time, dose: 64.0 mg/kg/injection, schedule: Q01DX001 (sc), vehicle: other 114 % of control | endpoint: mean survival time, dose: 64.0 mg/kg/injection, schedule: Q04DX003 (oral), vehicle: other 93 % of control | endpoint: mean survival time, dose: 64.0 mg/kg/injection, schedule: Q08DX002 (ip), vehicle: other 112 % of control | endpoint: median survival time, dose: 3.13 mg/kg/injection, schedule: Q01DX009 (ip), vehicle: saline 114 % of control and 105 % of control | endpoint: median survival time, dose: 6.25 mg/kg/injection, schedule: Q01DX009 (ip), vehicle: saline 114 % of control and 105 % of control | endpoint: median survival time, dose: 12.5 mg/kg/injection, schedule: Q01DX009 (ip), vehicle: saline 117 % of control

CCOc1ccccc1C1=CCCCCC1
inactive: endpoint: mean survival time, dose: 100.0 mg/kg/injection, schedule: Q04DX003 (ip), vehicle: saline with Tween-80 98 % of control | endpoint: mean survival time, dose: 200.0 mg/kg/injection, schedule: Q04DX003 (ip), vehicle: saline with Tween-80 107 % of control | endpoint: mean survival time, dose: 400.0 mg/kg/injection, schedule: Q04DX003 (ip), vehicle: saline with Tween-80 103 % of control
